Measurements reported in ChEMBL document CHEMBL4706640, “Structure-Based Drug Design and Synthesis of PI3Kα-Selective Inhibitor (PF-06843195)” (J Med Chem, 2021).
≈ marks a conversion by molar mass, not a printed value. Each block holds one compound with its values, some of them ahead of it. Calls of active or inactive are those of the source. The rule behind the calls is not given here.

Assays:
[1] = tested on: MCF7; test: Antitumor activity against human MCF7 cells xenografted in mouse model assessed as tumor growth regression in presence of fulvestrant and palbociclib; assay type: functional, cell-based
[2] = tested on: MCF7; test: Antitumor activity against human MCF7 cells xenografted in mouse model assessed as tumor growth regression in presence of palbociclib; assay type: functional, cell-based
[3] = tested on: MCF7; test: Antitumor activity against human MCF7 cells xenografted in mouse model assessed as tumor growth inhibition; assay type: functional, cell-based
[4] = tested on: MCF7; test: Antitumor activity against human MCF7 cells xenografted in mouse model assessed as tumor growth regression in presence of fulvestrant; assay type: functional, cell-based
[5] = Oral bioavailability in Wistar Han rat at […]; assay type: ADME, organism-based; conditions: in vivo
[6] = Tmax in Wistar Han rat assessed as 2,2-difluoroethyl (3S)-3-{[2'-amino-5-fluoro-2-(morpholin-4-yl)-4,5'-bipyrimidin-6-yl]amino}-3-(hydroxymethyl)pyrrolidine-1-carboxylate level at […], po; assay type: ADME, organism-based; conditions: in vivo
[7] = Tmax in Wistar Han rat at […], po; assay type: ADME, organism-based; conditions: in vivo
[8] = Cmax in Wistar Han rat assessed as 2,2-difluoroethyl (3S)-3-{[2'-amino-5-fluoro-2-(morpholin-4-yl)-4,5'-bipyrimidin-6-yl]amino}-3-(hydroxymethyl)pyrrolidine-1-carboxylate level at […], po; assay type: ADME, organism-based; conditions: in vivo
[9] = Cmax in Wistar Han rat at […], po; assay type: ADME, organism-based; conditions: in vivo
[10] = AUC (0 to t) in Wistar Han rat assessed as 2,2-difluoroethyl (3S)-3-{[2'-amino-5-fluoro-2-(morpholin-4-yl)-4,5'-bipyrimidin-6-yl]amino}-3-(hydroxymethyl)pyrrolidine-1-carboxylate level at […], po; assay type: ADME, organism-based; conditions: in vivo
[11] = AUC (0 to t) in Wistar Han rat at […], po; assay type: ADME, organism-based; conditions: in vivo
[12] = AUC (0 to t) in Wistar Han rat assessed as 2,2-difluoroethyl (3S)-3-{[2'-amino-5-fluoro-2-(morpholin-4-yl)-4,5'-bipyrimidin-6-yl]amino}-3-(hydroxymethyl)pyrrolidine-1-carboxylate level at 2.3 mg/kg, iv; assay type: ADME, organism-based; design: dose 2.3 mg/kg; conditions: in vivo
[13] = AUC (0 to t) in Wistar Han rat at 2.3 mg/kg, iv; assay type: ADME, organism-based; design: dose 2.3 mg/kg; conditions: in vivo
[14] = Half life in Wistar Han rat at 2.3 mg/kg, iv; assay type: ADME, organism-based; conditions: in vivo
[15] = Volume of distribution at steady state in Wistar Han rat at 2.3 mg/kg, iv; assay type: ADME, organism-based; conditions: in vivo, read-out: Vdss
[16] = Plasma clearance in Wistar Han rat at 2.3 mg/kg, iv; assay type: ADME, organism-based
[17] = Kinetic solubility of compound at pH 7.4 after 24 hrs by LC/MS/MS analysis; assay type: physicochemical; conditions: buffer, read-out: Kinetic_solubility
[18] = Thermodynamic solubility of compound at pH 7.4; assay type: physicochemical; conditions: buffer, read-out: Therm_solubility
[19] = tested on: MDA-MB-361; test: Antitumor activity against human MDA-MB-361 cells xenografted in mouse model assessed as tumor growth inhibition; assay type: functional, cell-based
[20] = Half life in rat intestinal S9 fraction assessed as 2,2-difluoroethyl (3S)-3-{[2'-amino-5-fluoro-2-(morpholin-4-yl)-4,5'-bipyrimidin-6-yl]amino}-3-(hydroxymethyl)pyrrolidine-1-carboxylate level by enzymatic hydrolysis assay; assay type: ADME, subcellular, Intestine
[21] = Half life in human intestinal S9 fraction assessed as 2,2-difluoroethyl (3S)-3-{[2'-amino-5-fluoro-2-(morpholin-4-yl)-4,5'-bipyrimidin-6-yl]amino}-3-(hydroxymethyl)pyrrolidine-1-carboxylate level by enzymatic hydrolysis assay; assay type: ADME, subcellular, Intestine
[22] = tested on: T47D; test: Antiproliferation activity against human T47D cells assessed as reduction in cell viability incubated for 7 days by Cell-titer Glo reagent based assay; assay type: functional; conditions: 168 h
[23] = Inhibition of PI3K p110alpha H1047R mutant in human T47D cells assessed as reduction in phosphorylation of Akt at T308 residue incubated for 2 hrs by ELISA; assay type: cell-based
[24] = Inhibition of PI3K p110alpha […] mutant in human MCF7 cells assessed as reduction in phosphorylation of Akt at T308 residue incubated for 2 hrs by ELISA; assay type: cell-based; conditions: MCF7, 2 h
[25] = tested on: MCF7; test: Antiproliferation activity against human MCF7 cells assessed as reduction in cell viability incubated for 7 days by Cell-titer Glo reagent based assay; assay type: functional; conditions: MCF7, 168 h
[26] = target: Serine/threonine-protein kinase mTOR (Homo sapiens, UniProt P42345); test: Inhibition of mTOR in TSC1 null human MCF7 cells assessed as decrease in p70S6K phosphorylation at Thr389 residue incubated for 2 hrs by ELISA; assay type: cell-based

bioavailability [5]: 0.14% | Tmax [6]: 120 min | Tmax [7]: 10.2 min | Cmax [8]: 290 ng/mL | Cmax [9]: 4.3 ng/mL | AUCt [10]: 1500 ng·h/mL | AUC(0-t) [11]: 2.9 ng·h/mL | AUCt [12]: 900 ng·h/mL | AUC(0-t) [13]: 430 ng·h/mL | half-life [14]: 16.8 min | Vd [15]: 0.34 L/kg | clearance [16]: 89 mL/min/kg | solubility kinetic at 24 h [17]: 310 µg/mL (≈ 0.536 mM) | solubility thermodynamic [18]: 6200 µg/mL (≈ 10.7 mM) | t1/2 [20]: 86 min | t1/2 [21]: 14 min
SMILES: Nc1ncc(-c2nc(N3CCOCC3)nc(N[C@@]3(COP(=O)(O)O)CCN(C(=O)OCC(F)F)C3)c2F)cn1
Activity [1]: Active | Activity [2]: Active | TGI [3]: Active | Activity [4]: Active | TGI [19]: Active

IC50 [22]: 420 nM | IC50 [23]: 30 nM | IC50 [24]: 39 nM | IC50 [25]: 530 nM | IC50 [26]: 3000 nM
SMILES: Cc1nc(NC(=O)N2CCC[C@H]2C(N)=O)sc1-c1ccnc(C(C)(C)C(F)(F)F)c1 [ALPELISIB]
